# Target: T1, HIF-PH2 (EGLN1) (Homo sapiens, UniProt Q9GZT9)
# T1 construct: made in house; host or cells: insect Hi5 cells
# Experiment: HIF-PH assay (14CO2 capture, peptide-dependent turnover)
# Type: biochemical
# Settings: compound concentration 7.4 μM
# Excerpt: Ketoglutaric acid α-[1-^14C]-sodium salt, alpha-ketoglutaric acid sodium salt, and HPLC purified peptide may be obtained from commercial sources, e.g., Perkin-Elmer (Wellesley Mass.), Sigma-Aldrich, and SynPep Corp. (Dublin Calif.), respectively. Peptides for use in the assay may be fragments of HIFα as described above or as disclosed in International Publication WO 2005/118836, incorporated by reference herein. For example, a HIF peptide for use in the HIF-PH assay is [methoxycoumarin]-DLDLEALAPYIPADDDFQL-amide (SEQ ID NO:2). HIF-PH, e.g., HIF-PH2 (EGLN1), can be expressed in, e.g., insect Hi5 cells, and partially purified, e.g., through a SP ion exchange chromatography column. Enzyme activity is determined by capturing ^14CO2 using an assay described by Kivirikko and Myllyla (1982, Methods Enzymol. 82:245-304). Assay reactions contain 50 mM HEPES (pH 7.4), 100 μM α-ketoglutaric acid sodium salt, 0.30 μCi/mL ketoglutaric acid α-[1-^14C]-sodium salt, 40 μM FeSO4, 1 mM ascorbate, 1541.8 units/mL Catalase, with or without 50 μM peptide substrate and various concentrations of compound of the invention. Reactions are initiated by addition of HIF-PH enzyme.
# The peptide-dependent percent turnover is calculated by subtracting percent turnover in the absence of peptide from percent turnover in the presence of substrate peptide. Percent inhibition and IC50 are calculated using peptide-dependent percent turnover at given inhibitor concentrations. Calculation of IC50 values for each inhibitor is conducted using GraFit software (Erithacus Software Ltd., Surrey UK).
# Representative compounds of the invention were analyzed using the HIF-PH assay described above. Table 1 presents enzyme inhibition data for exemplary compounds against HIF-PH2, a representative HIF prolyl hydroxylase. By inhibiting HIF prolyl hydroxylase, compounds of the invention stabilize HIFα, which then combines with HIFβ to form an active transcription factor that increases expression of various genes involved in numerous beneficial cellular processes.
# T1 sequence (Q9GZT9 whole entry): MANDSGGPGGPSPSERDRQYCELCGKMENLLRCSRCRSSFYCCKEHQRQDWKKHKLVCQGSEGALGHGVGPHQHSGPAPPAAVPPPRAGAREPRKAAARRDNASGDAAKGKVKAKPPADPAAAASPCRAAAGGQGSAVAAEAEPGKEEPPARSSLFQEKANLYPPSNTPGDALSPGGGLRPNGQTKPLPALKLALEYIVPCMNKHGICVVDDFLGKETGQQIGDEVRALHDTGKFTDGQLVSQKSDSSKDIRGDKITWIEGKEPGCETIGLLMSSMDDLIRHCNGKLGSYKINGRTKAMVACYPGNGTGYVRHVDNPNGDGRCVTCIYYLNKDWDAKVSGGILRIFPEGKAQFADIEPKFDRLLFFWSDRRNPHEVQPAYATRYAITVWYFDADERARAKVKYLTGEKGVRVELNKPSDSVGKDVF
row,SMILES,inhibition at 7.4 µM [%]
1,"C[C@H](NC(=O)c1c(O)c2ccccc2sc1=O)C(=O)O [Example 57, 2-(S)-[(4-Hydroxy-2-oxo-2H-thiochromene-3-carbonyl)-amino]-propionic acid]",98.4

# Same assay, conditions: compound concentration 12.5 μM
row,SMILES,inhibition at 12.5 µM [%]
1,"O=C(O)CNC(=O)c1c(O)c2ccc(F)cc2sc1=O [Example 21, [(7-Fluoro-4-hydroxy-2-oxo-2H-thiochromene-3-carbonyl)-amino]-acetic acid]",91.1
2,"CCCCOc1ccc2c(O)c(C(=O)NCC(=O)O)c(=O)sc2c1 [Example 26, [(7-Butoxy-4-hydroxy-2-oxo-2H-thiochromene-3-carbonyl)-amino]-acetic acid]",96.2
3,"O=C(O)CNC(=O)c1c(O)c2ccc(Br)cc2sc1=O [Example 5, [(7-bromo-4-hydroxy-2-oxo-2H-thiochromene-3-carbonyl)-amino]-acetic acid]",97.6

# Same assay, conditions: compound concentration 50 μM
row,SMILES,inhibition at 50 µM [%]
1,"O=C(O)CNC(=O)c1c(O)c2ccc(-c3cc(Cl)cc(Cl)c3)cc2sc1=O [Example 10, {[7-(3,5-Dichloro-phenyl)-4-hydroxy-2-oxo-2H-thiochromene-3-carbonyl]-amino}-acetic acid]",96.7
2,"O=C(O)CNC(=O)c1c(O)c2cc(Cl)cc(Cc3ccccc3)c2sc1=O [Example 42, [(8-Benzyl-6-chloro-4-hydroxy-2-oxo-2H-thiochromene-3-carbonyl)-amino]-acetic acid]",100
3,"Cn1nc(C(F)(F)F)cc1-c1ccc2c(O)c(C(=O)NCC(=O)O)c(=O)sc2c1 [Example 54, {[4-Hydroxy-7-(2-methyl-5-trifluoromethyl-2H-pyrazol-3-yl)-2-oxo-2H-thiochromene-3-carbonyl]-amino}-acetic acid]",98.6
4,"O=C(O)CNC(=O)c1c(O)c2cccc(-c3ccccc3)c2sc1=O [Example 51, [(4-Hydroxy-2-oxo-8-phenyl-2H-thiochromene-3-carbonyl)-amino]-acetic acid]",98.8
5,"O=C(O)CNC(=O)c1c(O)c2ccc(Cl)cc2sc1=O [Example 60, [(7-Chloro-4-hydroxy-2-oxo-2H-thiochromene-3-carbonyl)-amino]-acetic acid]",96.5
6,"COc1ccccc1-c1ccc2c(O)c(C(=O)NCC(=O)O)c(=O)sc2c1 [Example 9, {[4-Hydroxy-7-(2-methoxy-phenyl)-2-oxo-2H-thiochromene-3-carbonyl]-amino}-acetic acid]",97.2
7,"O=C(O)CNC(=O)c1c(O)c2cccc(-c3cccnc3)c2sc1=O [Example 50, [(4-Hydroxy-2-oxo-8-pyridin-3-yl-2H-thiochromene-3-carbonyl)-amino]-acetic acid]",98.8
8,"O=C(O)CNC(=O)c1c(O)c2ccc(-c3cncc(F)c3)cc2sc1=O [Example 16, {[7-(5-Fluoro-pyridin-3-yl)-4-hydroxy-2-oxo-2H-thiochromene-3-carbonyl]-amino}-acetic acid]",95.4

# Same assay, conditions: compound concentration 67 μM
row,SMILES,inhibition at 67 µM [%]
1,"O=C(O)CNC(=O)c1c(O)c2ccc(-c3cccc(F)c3)cc2sc1=O [Example 30, {[7-(3-Fluoro-phenyl)-4-hydroxy-2-oxo-2H-thiochromene-3-carbonyl]-amino}-acetic acid]",99.1
2,"O=C(O)CNC(=O)c1c(O)c2cc(-c3cccc(F)c3)ccc2sc1=O [Example 37, {[6-(3-Fluoro-phenyl)-4-hydroxy-2-oxo-2H-thiochromene-3-carbonyl]-amino}-acetic acid]",98.4
3,"COc1ccc(-c2ccc3sc(=O)c(C(=O)NCC(=O)O)c(O)c3c2)cc1 [Example 35, {[4-Hydroxy-6-(4-methoxy-phenyl)-2-oxo-2H-thiochromene-3-carbonyl]-amino}-acetic acid]",99.1
4,"O=C(O)CNC(=O)c1c(O)c2cc(-c3ccccc3Cl)ccc2sc1=O [Example 36, {[6-(2-Chloro-phenyl)-4-hydroxy-2-oxo-2H-thiochromene-3-carbonyl]-amino}-acetic acid]",99.7

# Same assay, conditions: compound concentration 200 μM
row,SMILES,inhibition at 200 µM [%]
1,"O=C(O)CNC(=O)c1c(O)c2cc(F)ccc2sc1=O [Example 4, [(6-Fluoro-4-hydroxy-2-oxo-2H-thiochromene-3-carbonyl)-amino]-acetic acid]",100

# Source: patent publication US9149476B2, “Thiochromene derivatives as HIF hydroxylase inhibitors” (FibroGen, Inc., priority 2008, dated 2015)
